Test results reported in patent US6451780B1, “Progesterone antagonists for the production of pharmaceutical agents for the treatment of dysfunctional uterine bleeding” (Schering Aktiengesellschaft, priority 1995, dated 2002).

Assays:
Format in all cases: in vivo
[1] = test system: Women with dysfunctional metrorrhagias; experiment: Prophylactic treatment of metrorrhagias with onapristone; conditions: 3-6 cycles
Procedure: (§1) Prophylactic Treatment of Metrorrhagias by One-time Administration of Onapristone Women with dysfunctional metrorrhagias are orally treated on a one-time basis with 200-400 mg of onapristone every 28 days. […] The treatment is continued for 3-6 cycles. Prophylactic Treatment of Metrorrhagias by Repeated Administration of Onapristone Women with dysfunctional metrorrhagias are orally treated every 28 days for a maximum of 10 days with 200-400 mg/day of onapristone. […] The treatment is continued over 3-6 cycles.

[2] = test system: Women with menorrhagias and hypermenorrhea; experiment: Prophylactic treatment of menorrhagias and hypermenorrhea with onapristone; conditions: 3-6 cycles
Procedure: as §1, with “Menorrhagias and Hypermenorrhea” for “Metrorrhagias”, “menorrhagias and hypermenorrhea” for “dysfunctional metrorrhagias”, “treated” for “treated on a one-time basis”, “for” for “over”

[3] = test system: Women with dysfunctional metrorrhagias; experiment: Acute treatment of metrorrhagias with onapristone; conditions: one-time oral 200-400 mg, preferably luteal phase
Procedure: Acute Treatment of Metrorrhagias by One-time Administration of Onapristone Women with dysfunctional metrorrhagias are orally treated on a one-time basis with 200-400 mg of onapristone. Preferred is treatment in the luteal phase of the cycle. The treatment results in a cessation of bleeding within 2-4 days.

[4] = test system: Women with menorrhagias and hypermenorrhea; experiment: Acute treatment of menorrhagias and hypermenorrhea with onapristone
Procedure: Acute Treatment of Menorrhagias and Hypermenorrhea by One-time Administration of Onapristone Women with menorrhagias and hypermenorrhea are orally treated on a one-time basis with 200-400 mg of onapristone on the 28th day of the cycle or on the first day of bleeding. The treatment induces menstruation-like bleeding of normal intensity (about 30 ml) and duration (about 5 days). Acute Treatment of Menorrhagias and Hypermenorrhea by Repeated Administration of Onapristone Women with menorrhagias and hypermenorrhea are orally treated until bleeding ceases on the 28th day of the cycle or on the first day of bleeding with 200-400 mg/day of onapristone, at most over 10 days.

[5] = one-time oral 200-400 mg every 28 days
[6] = repeated oral 200-400 mg/day every 28 days for a maximum of 10 days
[7] = one-time oral 200-400 mg on 28th day of cycle or first day of bleeding
[8] = repeated oral 200-400 mg/day until bleeding ceases, at most 10 days, from 28th day of cycle or first day of bleeding

SMILES: CN(C)c1ccc([C@H]2C[C@]3(C)[C@@H](CC[C@]3(O)CCCO)[C@@H]3CCC4=CC(=O)CCC4=C32)cc1 [onapristone, 11β-(4-dimethylaminophenyl)-17α-hydroxy-17β-(3-hydroxy-propyl)-13α-methyl-4,9-gonadien-3-one]
- duration of induced menstruation-like bleeding [1, 5]: about 5 days
- intensity of induced menstruation-like bleeding [1, 5]: about 30 ml
- occurrence of metrorrhagias [1, 5]: prevents the occurrence of metrorrhagias
- duration of induced menstruation-like bleeding [1, 6]: about 5 days
- intensity of induced menstruation-like bleeding [1, 6]: about 30 ml
- occurrence of metrorrhagias [1, 6]: prevents the occurrence of metrorrhagias
- duration of induced menstruation-like bleeding [2, 5]: about 5 days
- intensity of induced menstruation-like bleeding [2, 5]: about 30 ml
- occurrence of menorrhagias and hypermenorrhea [2, 5]: prevents the occurrence of menorrhagias and hypermenorrhea
- duration of induced menstruation-like bleeding [2, 6]: about 5 days
- intensity of induced menstruation-like bleeding [2, 6]: about 30 ml
- occurrence of menorrhagias and hypermenorrhea [2, 6]: prevents the occurrence of menorrhagias and hypermenorrhea
- cessation of bleeding within [3]: 2 to 4 days
- duration of induced menstruation-like bleeding [4, 7]: about 5 days
- intensity of induced menstruation-like bleeding [4, 7]: about 30 ml
- increased blood loss ([4]; repeated oral 200-400 mg/day until bleeding ceases, at most 10 days): prevents increased blood loss
- duration of induced menstruation-like bleeding [4, 8]: about 5 days
- intensity of induced menstruation-like bleeding [4, 8]: about 30 ml
